Results taken from US6228880A, “4-amino-(ethylamino)-oxindole dopamine autoreceptor agonists” (American Home Products Corp, priority 1999, dated 2001).
Where a name gives a salt, the structure may show the parent alone.

Columns and labels:
[1] = target: T1, dopamine autoreceptor (D2) (Rattus norvegicus, UniProt P61169); assay: Affinity for the dopamine autoreceptor, rat striatal tissue homogenate (D2 Quin.); assay type: binding; conditions: homogenized rat striatal brain tissue
T1 construct: from tissue; host or cells: rat striatum homogenate
T1 sequence (P61169 whole entry): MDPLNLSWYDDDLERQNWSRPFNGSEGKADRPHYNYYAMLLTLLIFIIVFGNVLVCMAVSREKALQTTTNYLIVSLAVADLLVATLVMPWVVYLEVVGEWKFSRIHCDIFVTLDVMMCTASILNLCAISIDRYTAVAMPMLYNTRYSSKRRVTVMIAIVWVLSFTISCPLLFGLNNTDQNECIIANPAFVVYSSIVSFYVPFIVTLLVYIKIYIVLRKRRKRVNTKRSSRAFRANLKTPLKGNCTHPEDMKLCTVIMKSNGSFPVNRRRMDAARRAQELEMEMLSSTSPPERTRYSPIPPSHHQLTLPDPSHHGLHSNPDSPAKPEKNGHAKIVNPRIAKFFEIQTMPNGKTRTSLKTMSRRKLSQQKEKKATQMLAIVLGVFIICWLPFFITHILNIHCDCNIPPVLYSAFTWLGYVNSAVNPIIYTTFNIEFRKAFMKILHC
Experimental: (§1) The affinity for the dopamine autoreceptor was established by the standard experimental test procedure of Seemen and Schaus, European Journal of Pharmacology, 203:105-109 (1991). According to this procedure, homogenized rat striatal brain tissue was incubated with the appropriate concentrations of test compound, filtered and washed and counted in a Betaplate scintillation counter.

dopamine D2 receptor [2] = target: T2, dopamine D2 receptor (Rattus norvegicus, UniProt P61169); assay: Affinity for the dopamine D2 receptor, 3H-spiroperidol binding in limbic brain tissue homogenate (D2 Spiper); conditions: 3H-spiroperidol (Spiper.); homogenized limbic brain tissue
T2 construct: from tissue; host or cells: limbic brain tissue homogenate
T2 sequence (P61169 whole entry): as above
Experimental: High affinity for the dopamine D2 receptor was established by the standard experimental test procedure of Fields, et al., Brain Res., 136:578 (1977) and Yamamura et al., eds., Neurotransmitter Receptor Binding, Raven Press, N.Y. (1978). Homogenized limbic brain tissue was incubated with ^3 H-spiroperidol (Spiper.) and the appropriate concentrations of test compound, filtered, washed and shaken with Hydrofluor scintillation cocktail (available from National Diagnostics) and counted in a Packard 460 CD scintillation counter.

dopamine D2 receptor [3] = target: T2, dopamine D2 receptor; assay: Ratio of D2 Spiper to D2 Quin. (LowAg/HighAg, intrinsic activity); assay type: binding; conditions: D2 Spiper IC50 / D2 Quin. IC50 (LowAg/HighAg)
Excerpt: Efforts to induce antipsychotic activity with dopamine autoreceptor agonists have been successful (e.g., see Dorsini et al., Adv. Biochem. Psychopharmacol., 16:645-648 (1977); Tamminga et al., Science, 200:567-568 (1975); and Tamminga et al., Psychiatry 398-402 (1986). A method for determining intrinsic activity at the dopamine D2 receptor was recently reported by Lahti et al., Mol. Pharm. 42:432-438 (1993). Intrinsic activity is predicted using the ratio of the "low-affinity agonist" (i.e., LowAg) state of the receptor and the "high-affinity agonist" (i.e., HighAg) state of the receptor, i.e. LowAg/HighAg. These ratios correlate with the agonist, partial agonist, and antagonist activities of a given compound. Such activities characterize the ability of a compound to elicit an antipsychotic effect.
as §1, with “counter. […]” for “counter.”

IC50 [1]: 13.2 nM
IC50 (dopamine D2 receptor [2]): 892 nM
Ratio (dopamine D2 receptor [3]): 67.7
Compound: O=C1Cc2c(NCCNCc3ccccc3)cccc2N1 [Example 1, 4-(2-Benzylamino-ethylamino)-1,3-dihydro-indol-2-one.dihydrochloride.0.1 hydrate]
